Experimental findings from US20260226048A1, “MULTI-CYCLIC IRAK AND FLT3 INHIBITING COMPOUNDS AND USES THEREOF” (CHILDREN'S HOSPITAL MEDICAL CENTER, priority 2023, published 2026) are described below.

Where two headings read alike, the source gives them in different places.

One assay concerns MOLM14 D835Y cells. Description: MOLM14 D835Y cell viability assay (Cell Titer Glo). Type of assay: cell-based. The conditions noted are these: Homo sapiens, MOLM-14, 48 h, cell viability, Cell Titer Glo, 48 hours; read-out: MOLM14 D835Y IC50. The essentials: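 MOLM14 cells with FLT3 D835Y or F691L kinase-domain resistance mutations seeded at 1000 cells/well and exposed to compound for 48 h under standard incubator conditions. Viability read by CellTiter-Glo luminescence after 15 min at room temperature.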

In assay [1] the test system is NF-κB-inducible SEAP reporter in THP-1-Blue NF-κB cells. Description: NF-kB SEAP reporter assay in THP-1-Blue NF-κB cells. Type of assay: cell-based. The conditions noted are these: 24 hours. The essentials:
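Cells (1×10^5/well) stimulated with Pam3CSK4 (1 ng/mL) or hIL1B (1 ng/mL), then after 10-20 min given 10-point 1:10 compound dilutions from 1 μM or 3 μM for 24 h at 37° C. Secreted SEAP in supernatant read with QUANTI-Blue (30-60 min, 37° C) at 620 nm.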

Another assay concerns the target T1, IRAK1 (Homo sapiens, UniProt P51617).
T1 construct: purchased Reaction Biology (RBC HotSpot)
Description: RBC HotSpot Kinase Assay, IRAK1. To be noted: isolated kinase enzyme, 33P-ATP, P81 filter-binding. Type of assay: biochemical. The essentials:
(§1)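 Radiometric HotSpot assay of catalytic activity with isolated recombinant kinase, possibly truncated or kinase domain only. Buffer: 20 mM Hepes pH 7.5, 10 mM MgCl2, 1 mM EGTA, 0.01% Brij35, 0.02 mg/ml BSA, 0.1 mM Na3VO4, 2 mM DTT, 1% DMSO, with cofactors specific to each kinase.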

The target of a further assay is T2, FLT3 (Homo sapiens, UniProt P36888).
T2 sequence (P36888 27-993): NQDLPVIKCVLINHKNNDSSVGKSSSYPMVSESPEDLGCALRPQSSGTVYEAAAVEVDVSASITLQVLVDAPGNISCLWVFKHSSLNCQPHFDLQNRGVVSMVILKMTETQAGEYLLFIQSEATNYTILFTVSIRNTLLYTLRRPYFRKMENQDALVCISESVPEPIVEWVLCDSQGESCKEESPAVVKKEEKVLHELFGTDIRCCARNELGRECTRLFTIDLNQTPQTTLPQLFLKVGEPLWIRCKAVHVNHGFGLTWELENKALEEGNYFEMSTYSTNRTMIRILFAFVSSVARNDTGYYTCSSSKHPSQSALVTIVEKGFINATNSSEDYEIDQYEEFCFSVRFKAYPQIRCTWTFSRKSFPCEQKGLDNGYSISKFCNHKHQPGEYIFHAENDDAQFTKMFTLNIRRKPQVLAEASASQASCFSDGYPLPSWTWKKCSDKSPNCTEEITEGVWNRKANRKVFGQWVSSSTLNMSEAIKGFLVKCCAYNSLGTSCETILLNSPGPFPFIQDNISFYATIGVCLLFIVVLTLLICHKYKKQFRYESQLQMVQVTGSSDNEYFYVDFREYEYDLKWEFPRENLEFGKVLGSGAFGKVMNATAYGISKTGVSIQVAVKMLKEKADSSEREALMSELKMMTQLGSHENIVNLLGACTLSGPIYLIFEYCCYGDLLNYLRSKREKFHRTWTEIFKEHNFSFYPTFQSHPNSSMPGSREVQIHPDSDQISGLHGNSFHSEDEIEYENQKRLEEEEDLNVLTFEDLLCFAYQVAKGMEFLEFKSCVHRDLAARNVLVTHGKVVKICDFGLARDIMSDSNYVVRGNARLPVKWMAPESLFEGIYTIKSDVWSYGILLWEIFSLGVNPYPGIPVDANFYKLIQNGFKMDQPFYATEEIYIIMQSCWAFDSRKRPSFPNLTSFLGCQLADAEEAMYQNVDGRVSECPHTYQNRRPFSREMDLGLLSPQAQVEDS
Description: RBC HotSpot Kinase Assay, FLT3. Type of assay: biochemical. Also noted: purchased Reaction Biology (RBC HotSpot). To be noted: isolated kinase enzyme, 33P-ATP, P81 filter-binding. The essentials: as §1

The test system of assay [2] is MOLM14-D835Y cells (FLT3-ITD (D835Y) mutant). Description: Combination drug screening with venetoclax in MOLM14 (D835Y) cells (Cell Titre Glo, 10 × 10). Type of assay: cell-based. Details: Excess HSA (sum excess HSA score, combination with venetoclax): scale not given here. The conditions noted are these: for Excess HSA (sum excess HSA score, combination with venetoclax): 10 × 10 dataset, Cell Titre Glo at 48 hours, optimal of 4 dose combinations, negative = synergy; for Concentration of a compound of the disclosure, or gilteritinib, needed to decrease the 62.5 nM Ven response to <10% in MOLM14(D835Y) cells: combination with 62.5 nM Venetoclax, Cell Titer Glo, 48 hours, response <10%. Here is the method: These assays were performed using the Cell Titre Glo assay, measured at 48 hours.
A smaller concentration indicates higher potency to synergize with Venetoclax.
For orientation: In ATP-based viability assays light output follows the ATP content of the culture.

Setting [3] is: THP-1-Blue NF-κB cells stimulated with Pam3CSK4 (1 ng/mL), read-out: NF-κB Pam3SCK4 IC50.
The mark [4] stands for this setting: THP-1-Blue NF-κB cells stimulated with hIL1B (1 ng/mL), read-out: NF-κB IL1B IC50.

T1 sequence (P51617 whole entry): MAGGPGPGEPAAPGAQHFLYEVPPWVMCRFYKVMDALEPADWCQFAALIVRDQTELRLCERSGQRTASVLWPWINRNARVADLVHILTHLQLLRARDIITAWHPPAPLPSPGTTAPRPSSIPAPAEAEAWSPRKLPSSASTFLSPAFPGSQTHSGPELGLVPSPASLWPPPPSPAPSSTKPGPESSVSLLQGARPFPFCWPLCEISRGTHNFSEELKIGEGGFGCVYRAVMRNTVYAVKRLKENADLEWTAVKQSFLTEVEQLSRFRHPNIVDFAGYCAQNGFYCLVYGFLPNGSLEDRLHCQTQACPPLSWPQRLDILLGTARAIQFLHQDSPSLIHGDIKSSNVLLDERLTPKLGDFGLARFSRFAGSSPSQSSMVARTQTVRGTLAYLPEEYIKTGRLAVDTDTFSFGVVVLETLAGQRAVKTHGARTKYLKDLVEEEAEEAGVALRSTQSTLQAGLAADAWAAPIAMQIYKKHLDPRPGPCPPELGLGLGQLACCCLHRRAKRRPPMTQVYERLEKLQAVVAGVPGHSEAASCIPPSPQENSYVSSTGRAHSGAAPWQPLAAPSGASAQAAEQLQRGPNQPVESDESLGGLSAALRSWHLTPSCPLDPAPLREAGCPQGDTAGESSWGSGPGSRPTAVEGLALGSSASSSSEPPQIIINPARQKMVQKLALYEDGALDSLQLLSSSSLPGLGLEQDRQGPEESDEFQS

As usually defined, the IC50 is the concentration that inhibits the measured activity by half. Turning to `F[C@H]1CCNC[C@@H]1Nc1nccc(-c2cnc3cc(OC4CC4)c(C4CC4)nn23)n1` [Compound 12a, 4-(7-cyclopropoxy-6-cyclopropylimidazo[1,2-b]pyridazin-3-yl)-N-((3S,4S)-4-fluoropiperidin-3-yl)pyrimidin-2-amine], the IC50 with MOLM14 D835Y cells was 23 nM; in assay [1] (setting [3]), 382 nM; in assay [1] (setting [4]), 220 nM; at IRAK1 it was 18 nM; on FLT3, < 0.5 nM. Further, the “Excess HSA (sum excess HSA score, combination with venetoclax)” value (shortened to “Excess HSA”) in assay [2] is reported as −1236. For the same compound, the “Concentration of a compound of the disclosure, or gilteritinib, needed to decrease the 62.5 nM Ven response to <10% in MOLM14(D835Y) cells” value in assay [2] was found to be 100 nM.
In the case of `COc1cc2ncc(-c3nc(N[C@H]4CNCC[C@@H]4F)ncc3F)n2nc1C(C)(C)O` [Compound 45a, 2-(3-(5-fluoro-2-(((3S,4S)-4-fluoropiperidin-3-yl)amino)pyrimidin-4-yl)-7-methoxyimidazo[1,2-b]pyridazin-6-yl)propan-2-ol], the IC50 in the assay with MOLM14 D835Y cells was 15 nM; in assay [1] (setting [3]), 204 nM; in assay [1] (setting [4]) it was 351 nM; at IRAK1 it was 18 nM; on FLT3 it was < 0.5 nM. For the same compound, the “Excess HSA” value in assay [2] is −2340. Also, in assay [2], the “Concentration of a compound of the disclosure, or gilteritinib, needed to decrease the 62.5 nM Ven response to <10% in MOLM14(D835Y) cells” value amounted to 25 nM.
For the compound `CC(C)(O)c1ccc2ncc(-c3nc(N[C@H]4CNCC[C@@H]4F)ncc3F)n2c1` [Compound 46a, 2-(3-(5-fluoro-2-(((3S,4S)-4-fluoropiperidin-3-yl)amino)pyrimidin-4-yl)imidazo[1,2-a]pyridin-6-yl)propan-2-ol], the IC50 in the assay on MOLM14 D835Y cells was 33 nM; in assay [1] (setting [3]), 103 nM; in assay [1] (setting [4]), 112 nM; on IRAK1, 6 nM; on FLT3, < 0.7 nM. For the same compound, the “Excess HSA” value in assay [2] was −1279. Moreover, the “Concentration of a compound of the disclosure, or gilteritinib, needed to decrease the 62.5 nM Ven response to <10% in MOLM14(D835Y) cells” value in assay [2] worked out at 50 nM.
With `CC(C)(O)c1ccc2ncc(-c3nc(N[C@@H]4CCCNC4)ncc3F)n2c1` [Compound 48a, (R)-2-(3-(5-fluoro-2-(piperidin-3-ylamino)pyrimidin-4-yl)imidazo[1,2-a]pyridin-6-yl)propan-2-ol], the IC50 with MOLM14 D835Y cells stood at 36 nM; in assay [1] (setting [3]), 56 nM; in assay [1] (setting [4]), 96 nM; on IRAK1, 10 nM; on FLT3, 1 nM. Also, the “Excess HSA” value in assay [2] is recorded as −1694. Also, the “Concentration of a compound of the disclosure, or gilteritinib, needed to decrease the 62.5 nM Ven response to <10% in MOLM14(D835Y) cells” value in assay [2] came to 156.3 nM.
As to `COc1cc2ncc(-c3nc(N[C@H]4CNCC[C@@H]4F)ncc3F)n2nc1C1CC(F)(F)C1` [Compound 49a, 4-(6-(3,3-difluorocyclobutyl)-7-methoxyimidazo[1,2-b]pyridazin-3-yl)-5-fluoro-N-((3S,4S)-4-fluoropiperidin-3-yl)pyrimidin-2-amine], the IC50 in the assay on MOLM14 D835Y cells is 15 nM; in assay [1] (setting [3]), 79 nM; in assay [1] (setting [4]), 89 nM; on IRAK1, 2 nM; on FLT3 it was < 0.5 nM. For the same compound, the “Excess HSA” value in assay [2] is on record as −1960. The “Concentration of a compound of the disclosure, or gilteritinib, needed to decrease the 62.5 nM Ven response to <10% in MOLM14(D835Y) cells” value in assay [2] is 6.3 nM.
As for `COc1cc2ncc(-c3nc(N[C@@H]4CCCNC4)ncc3F)n2nc1C1CC2(CCC2)C1` [Compound 59a, (R)-5-fluoro-4-(7-methoxy-6-(spiro[3.3]heptan-2-yl)imidazo[1,2-b]pyridazin-3-yl)-N-(piperidin-3-yl)pyrimidin-2-amine], the half-maximal inhibitory concentration (IC50) with MOLM14 D835Y cells is 7 nM; in assay [1] (setting [3]), 250 nM; in assay [1] (setting [4]), 323 nM; on IRAK1, 0.7 nM; at FLT3, < 0.5 nM. The “Excess HSA” value in assay [2] was −1911. Further, the “Concentration of a compound of the disclosure, or gilteritinib, needed to decrease the 62.5 nM Ven response to <10% in MOLM14(D835Y) cells” value in assay [2] amounted to 12.5 nM.
`COc1cc2ncc(-c3nc(N[C@H]4CNCC[C@@H]4F)ncc3F)n2nc1C1CC2(CCC2)C1` [Compound 60a, 5-fluoro-N-((3S,4S)-4-fluoropiperidin-3-yl)-4-(7-methoxy-6-(spiro[3.3]heptan-2-yl)imidazo[1,2-b]pyridazin-3-yl)pyrimidin-2-amine]: the IC50 with MOLM14 D835Y cells was 11 nM; in assay [1] (setting [3]), 156 nM; in assay [1] (setting [4]), 200 nM; at IRAK1, 4 nM; on FLT3, < 0.5 nM. Also, the “Excess HSA” value in assay [2] is reported as −1497.3117. Moreover, in assay [2], the “Concentration of a compound of the disclosure, or gilteritinib, needed to decrease the 62.5 nM Ven response to <10% in MOLM14(D835Y) cells” value is 25 nM.
Take `COc1cc2ncc(-c3ccnc(N[C@H]4CNCC[C@@H]4F)n3)n2nc1C1CCC1` [Compound 79a, 4-(6-cyclobutyl-7-methoxyimidazo[1,2-b]pyridazin-3-yl)-N-((3S,4S)-4-fluoropiperidin-3-yl)pyrimidin-2-amine]: the IC50 was 20 nM with MOLM14 D835Y cells; 340 nM in assay [1] (setting [3]); 271 nM in assay [1] (setting [4]); 33 nM at IRAK1; < 0.5 nM at FLT3. Moreover, the “Excess HSA” value in assay [2] is given as −1180. Besides, in assay [2], the “Concentration of a compound of the disclosure, or gilteritinib, needed to decrease the 62.5 nM Ven response to <10% in MOLM14(D835Y) cells” value came out at 25 nM.
Consider `COc1cc2ncc(-c3nc(N[C@H]4CNCC[C@@H]4F)ncc3F)n2nc1C1COC1` [Compound 92a, 5-fluoro-N-((3S,4S)-4-fluoropiperidin-3-yl)-4-(7-methoxy-6-(oxetan-3-yl)imidazo[1,2-b]pyridazin-3-yl)pyrimidin-2-amine], for which the half-inhibitory concentration (IC50) with MOLM14 D835Y cells is 5 nM; in assay [1] (setting [3]), 53 nM; in assay [1] (setting [4]), 60 nM; at IRAK1, 4 nM; at FLT3, < 0.5 nM. In assay [2], the “Concentration of a compound of the disclosure, or gilteritinib, needed to decrease the 62.5 nM Ven response to <10% in MOLM14(D835Y) cells” value was 12.5 nM.
Turning to `CC(C)(O)c1cn2c(-c3nc(N[C@H]4CNCC[C@@H]4F)ncc3F)cnc2cn1` [Compound 100a, 2-(3-(5-fluoro-2-(((3S,4S)-4-fluoropiperidin-3-yl)amino)pyrimidin-4-yl)imidazo[1,2-a]pyrazin-6-yl)propan-2-ol], the IC50 in the assay on MOLM14 D835Y cells was 90 nM; in assay [1] (setting [3]) it was 69 nM; in assay [1] (setting [4]) it was 83 nM; at IRAK1, 24 nM; at FLT3 it was 1 nM. Besides, the “Excess HSA” value in assay [2] is recorded as −1548. Moreover, in assay [2], the “Concentration of a compound of the disclosure, or gilteritinib, needed to decrease the 62.5 nM Ven response to <10% in MOLM14(D835Y) cells” value was 625 nM.
